system: WNT signaling (TopGFP reporter in Human Colonic Epithelial Cells (HCEC)); assay: WNT Reporter Assay (TopGFP reporter); type: cell-based; conditions: Homo sapiens, stimulated with 10 μM CHIR99021, 24 hours, TopGFP/mCherry
Method: WNT Reporter Assay: Human Colonic Epithelial Cells (HCEC) were cultured using 1×DMEM supplemented with 1% penicillin/streptomycin, 1% Glutamax, and 10% fetal bovine serum in 5% CO2 at 37° C. These cells were previously engineered to express the TopGFP reporter (Addgene #24304) using second generation lentiviral techniques. For the Wnt reporter assay, cells were seeded at 2000 cells per well in a 384-well black screenstar imaging microplates (Greiner #781866) and allowed to adhere overnight. The following day cells were stimulated to induce the Wnt pathway using 10 μM CHIR99021 (Selleck #S1263). […] Cells were incubated for 24 hours before fixing for 30 minutes with 4% paraformaldehyde/sucrose solution. Cells were permeabilized with 0.1% triton-x in PBS for 10 minutes and stained for DAPI for 30 minutes. Plates were imaged on a Nikon Ti2 Eclipse fluorescent microscope for DAPI, GFP, and mCherry. Using Nikon Elements software for analysis, nuclei were segmented based on DAPI and mean object intensity per cell for both TopGFP and the internal control (mCherry) was measured. To calculate the amount of Wnt activity, we took the mean intensity of TopGFP and divided it by the mean intensity of mCherry per cell to normalize individual cells. Curves and EC50s were plotted and calculated using Graphpad Prism software.

Row | EC50 | Molecule
1 | < 100 nM | Nc1cc(-c2ccc3ncnc(N4CCN(c5ccccc5)CC4)c3n2)ccn1 [Compound 4, 4-(4-(4-phenylpiperazin-1-yl)pyrido[3,2-d]pyrimidin-6-yl)pyridin-2-amine]
2 | 100 to 1000 nM | Nc1cc(-c2ccc3ncnc(N4C[C@H]5CN(c6ccccn6)C[C@H]5C4)c3c2)ccn1 [Compound 66, 4-(4-((3aR,6aS)-5-(pyridin-2-yl)hexahydropyrrolo[3,4-c]pyrrol-2(1H)-yl)quinazolin-6-yl)pyridin-2-amine]
3 | 100 to 1000 nM | Nc1cc(-c2ccc3ncnc(N4CCN(c5ccccc5F)CC4)c3c2)ccn1 [Compound 15, 4-(4-(4-(2-fluorophenyl)piperazin-1-yl)quinazolin-6-yl)pyridin-2-amine]
4 | 100 to 1000 nM | Nc1cc(-c2ccc3ncnc(N4CCN(Cc5ccc(F)cc5)CC4)c3c2)ccn1 [Compound 43, 4-(4-(4-(4-fluorobenzyl)piperazin-1-yl)quinazolin-6-yl)pyridin-2-amine]
5 | < 100 nM | Nc1cc(-c2ccc3ncnc(N4CCN(c5ccccn5)CC4)c3n2)ccn1 [Compound 5, 4-(4-(4-(pyridin-2-yl)piperazin-1-yl)pyrido[3,2-d]pyrimidin-6-yl)pyridin-2-amine]
6 | 100 to 1000 nM | Nc1cc(-c2ccc3ncnc(N4CCN(c5ccc(F)cc5)CC4)c3c2)ccn1 [Compound 31, 4-(4-(4-(4-fluorophenyl)piperazin-1-yl)quinazolin-6-yl)pyridin-2-amine]
7 | 100 to 1000 nM | Cc1ccc(N2CCN(c3ccnc4ccc(-c5ccnc(N)c5)cc34)CC2)c(C)c1 [Compound 34, 4-(4-(4-(2,4-dimethylphenyl)piperazin-1-yl)quinolin-6-yl)pyridin-2-amine]
8 | < 100 nM | O=C1CN(c2ncnc3ccc(-c4cn[nH]c4)cc23)CCN1c1ccccc1 [Compound 32, 4-(6-(1H-pyrazol-4-yl)quinazolin-4-yl)-1-phenylpiperazin-2-one]

More lines, now with the values behind:

Row | Molecule | EC50
9 | Nc1cc(-c2ccc3nccc(N4CCN(c5ccc(F)cc5)CC4)c3c2)ccn1 [Compound 30, 4-(4-(4-(4-fluorophenyl)piperazin-1-yl)quinolin-6-yl)pyridin-2-amine] | < 100 nM
10 | c1ccc(N2CCN(c3ncnc4ccc(-c5cn[nH]c5)cc34)CC2)nc1 [Compound 14, 6-(1H-pyrazol-4-yl)-4-(4-(pyridin-2-yl)piperazin-1-yl)quinazoline] | < 100 nM
11 | Fc1ccccc1N1CCN(c2ncnc3ccc(-c4cnoc4)nc23)CC1 [Compound 40, 4-(4-(4-(2-fluorophenyl)piperazin-1-yl)pyrido[3,2-d]pyrimidin-6-yl)isoxazole] | 100 to 1000 nM
12 | Nc1cc(-c2ccc3ncnc(N4[C@@H]5CC[C@H]4CN(c4ccccn4)C5)c3c2)ccn1 [Compound 54, 4-(4-((1R,5S)-3-(pyridin-2-yl)-3,8-diazabicyclo[3.2.1]octan-8-yl)quinazolin-6-yl)pyridin-2-amine] | 100 to 1000 nM
13 | CC(=O)N1CCN(c2ncnc3ccc(-c4ccnc(N)c4)cc23)CC1 [Compound 1, 1-(4-(6-(2-aminopyridin-4-yl)quinazolin-4-yl)piperazin-1-yl)ethan-1-one] | 100 to 1000 nM
14 | C[C@H]1CN(c2ccccn2)CCN1c1ncnc2ccc(-c3ccnc(N)c3)cc12 [Compound 45, (S)-4-(4-(2-methyl-4-(pyridin-2-yl)piperazin-1-yl)quinazolin-6-yl)pyridin-2-amine] | < 100 nM
15 | Nc1cc(-c2ccc3nccc(N4CCN(c5ccccc5)CC4)c3n2)ccn1 [Compound 53, 4-(8-(4-phenylpiperazin-1-yl)-1,5-naphthyridin-2-yl)pyridin-2-amine] | < 100 nM
16 | Nc1cc(-c2ccc3ncnc(N4CCC(c5ccccc5)CC4)c3c2)ccn1 [Compound 51, 4-(4-(4-phenylpiperidin-1-yl)quinazolin-6-yl)pyridin-2-amine] | 100 to 1000 nM

same assay, conditions: stimulated with 10 μM CHIR99021, 24 hours, TopGFP/mCherry

Row | EC50 | Molecule
17 | > 1000 nM | 6-(1-methyl-1H-pyrazol-3-yl)-4-(4-(5-(trifluoromethyl)pyridin-2-yl)piperazin-1-yl)pyrido[3,2-d]pyrimidine [Compound 21]
18 | < 100 nM | 6-(1H-pyrazol-3-yl)-4-(4-(5-(trifluoromethyl)pyridin-2-yl)piperazin-1-yl)pyrido[3,2-d]pyrimidine [Compound 22]

— patent US20250382301A1 (Arizona Board of Regents on Behalf of the University of …, priority 2022, published 2025)
